Source: PubChem BioAssay (NCI)
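Here, GI50 denotes the concentration required for 50% inhibition of growth. TGI: concentration producing complete growth inhibition.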

Legend:
Test in all cases: NCI anticancer screen, dose series, 384-well format
SF-268 CNS = tested on: SF-268 CNS
CAKI-1 renal = tested on: CAKI-1 renal
MDA-MB-468 breast = tested on: MDA-MB-468 breast
HOP-62 NSCLC = tested on: HOP-62 NSCLC
HOP-92 NSCLC = tested on: HOP-92 NSCLC
K-562 leukemia = tested on: K-562 leukemia
ACHN renal = tested on: ACHN renal
SW-620 colon = tested on: SW-620 colon
OVCAR-8 ovarian = tested on: OVCAR-8 ovarian
A498 renal = tested on: A498 renal
NCI-H460 NSCLC = tested on: NCI-H460 NSCLC
SN12C renal = tested on: SN12C renal
SNB-75 CNS = tested on: SNB-75 CNS
NCI-H522 lung = tested on: NCI-H522 lung
IGROV1 ovarian = tested on: IGROV1 ovarian
LOX IMVI melanoma = tested on: LOX IMVI melanoma
DU-145 prostate = tested on: DU-145 prostate
MOLT-4 leukemia = tested on: MOLT-4 leukemia
PC-3 prostate = tested on: PC-3 prostate
OVCAR-4 ovarian = tested on: OVCAR-4 ovarian
UACC-257 melanoma = tested on: UACC-257 melanoma
UACC-62 melanoma = tested on: UACC-62 melanoma
786-0 renal = tested on: 786-0 renal
HCT-15 colon = tested on: HCT-15 colon
HL-60(TB) leukemia = tested on: HL-60(TB) leukemia
SK-MEL-28 melanoma = tested on: SK-MEL-28 melanoma
OVCAR-3 ovarian = tested on: OVCAR-3 ovarian
T-47D breast = tested on: T-47D breast
SF-295 CNS = tested on: SF-295 CNS

With `CCOCCOC[C@H]1CCCN(c2ccnc3sc(C(N)=O)c(N)c23)C1` the GI50 (SF-268 CNS) was > 100 µM, the TGI (SF-268 CNS) was > 100 µM and the GI50 (CAKI-1 renal) was > 100 µM. For the same compound, the TGI (CAKI-1 renal) was > 100 µM, the GI50 (MDA-MB-468 breast) was 1.34 µM and the TGI (MDA-MB-468 breast) was 7.04 µM. The GI50 (HOP-62 NSCLC) was 18.5 µM, the TGI (HOP-62 NSCLC) was > 100 µM and the GI50 (HOP-92 NSCLC) was > 100 µM. For the same compound, the TGI (HOP-92 NSCLC) was > 100 µM, the GI50 (K-562 leukemia) was 4.6 µM and the TGI (K-562 leukemia) was > 100 µM. For the same compound, the GI50 (ACHN renal) was 44.9 µM, the TGI (ACHN renal) was > 100 µM and the GI50 (SW-620 colon) was > 100 µM. The TGI (SW-620 colon) was > 100 µM, the GI50 (OVCAR-8 ovarian) was 15.2 µM and the TGI (OVCAR-8 ovarian) was > 100 µM. The GI50 (A498 renal) was 13.9 µM, the TGI (A498 renal) was > 100 µM and the GI50 (NCI-H460 NSCLC) was 11.4 µM. For the same compound, the TGI (NCI-H460 NSCLC) was > 100 µM, the GI50 (SN12C renal) was > 100 µM and the TGI (SN12C renal) was > 100 µM. For the same compound, the GI50 (SNB-75 CNS) was > 100 µM, the TGI (SNB-75 CNS) was > 100 µM and the GI50 (NCI-H522 lung) was 5.77 µM. The TGI (NCI-H522 lung) was > 100 µM, the GI50 (IGROV1 ovarian) was 29.6 µM and the TGI (IGROV1 ovarian) was > 100 µM. The GI50 (LOX IMVI melanoma) was 16.9 µM, the TGI (LOX IMVI melanoma) was > 100 µM and the GI50 (DU-145 prostate) was > 100 µM. The TGI (DU-145 prostate) was > 100 µM, the GI50 (MOLT-4 leukemia) was 3.13 µM and the TGI (MOLT-4 leukemia) was 23.1 µM. For the same compound, the GI50 (PC-3 prostate) was 55.1 µM, the TGI (PC-3 prostate) was > 100 µM and the GI50 (OVCAR-4 ovarian) was 34.1 µM. For the same compound, the TGI (OVCAR-4 ovarian) was > 100 µM, the GI50 (UACC-257 melanoma) was 61.1 µM and the TGI (UACC-257 melanoma) was > 100 µM. For the same compound, the GI50 (UACC-62 melanoma) was 35.6 µM, the TGI (UACC-62 melanoma) was > 100 µM and the GI50 ([…]-0 renal) was 43.9 µM. For the same compound, the TGI (786-0 renal) was > 100 µM, the GI50 (HCT-15 colon) was > 100 µM and the TGI (HCT-15 colon) was > 100 µM. The GI50 (HL-60(TB) leukemia) was 13.5 µM, the TGI (HL-60(TB) leukemia) was 63.8 µM and the GI50 (SK-MEL-28 melanoma) was > 100 µM. The TGI (SK-MEL-28 melanoma) was > 100 µM, the GI50 (OVCAR-3 ovarian) was 23.8 µM and the TGI (OVCAR-3 ovarian) was > 100 µM. The GI50 (T-47D breast) was 2.23 µM, the TGI (T-47D breast) was 67.4 µM and the GI50 (SF-295 CNS) was 59.3 µM.
